Patent US12583858B2 (Genentech, Inc., priority 2015, dated 2026)

Molecular target: T1, TDO2 (Homo sapiens, UniProt P48775)
T1 construct: decreased levels of NFK in SW48 cells (high TDO expressing cells)
Experiment: TDO2 cell assay (NFK GreenScreen, SW48 cells)
Assay type: cell-based
Details: SW48 cells (high TDO expressing), 200 uM tryptophan, 24 hours; Table 3; read-out: TDO2 Cell Fluor EC50

T1 sequence (P48775 whole entry): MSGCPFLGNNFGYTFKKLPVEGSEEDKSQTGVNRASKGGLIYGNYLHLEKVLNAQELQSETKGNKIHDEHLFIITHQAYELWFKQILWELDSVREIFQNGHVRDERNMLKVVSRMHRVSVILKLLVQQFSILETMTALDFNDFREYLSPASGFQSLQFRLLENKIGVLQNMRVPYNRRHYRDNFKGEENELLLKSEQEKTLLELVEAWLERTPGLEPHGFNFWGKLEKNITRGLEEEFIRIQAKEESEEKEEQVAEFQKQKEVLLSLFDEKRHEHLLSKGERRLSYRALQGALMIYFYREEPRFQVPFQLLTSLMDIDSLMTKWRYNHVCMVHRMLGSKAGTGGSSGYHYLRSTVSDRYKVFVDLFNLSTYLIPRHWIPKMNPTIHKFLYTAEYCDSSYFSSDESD

| EC50 | Compound |
| --- | --- |
| > 25000 nM | CS(=O)(=O)c1ccc2c(c1)OCC(C1c3ccccc3-c3cncn31)C2O (single isomer, unassigned) [Example 91c] |
| 730 nM | CS(=O)(=O)N1CCC(O)(C2c3ccccc3-c3cncn32)C1 (single isomer, unassigned) [Example 116d] |
| 58 nM | CS(=O)(=O)c1ccc2c(c1)CCC(C1c3ccccc3-c3cncn31)C2O (single isomer, unassigned) [Example 36b] |
| 2100 nM | OC1(C2c3ccccc3-c3cncn32)CCCOC1 (single isomer, unassigned) [Example 144c] |
| 950 nM | Cc1cc2c(cn1)[C@@H](O)[C@@H]([C@H]1c3ccccc3-c3cncn31)C2 [Example 59a, (6R,7S)-6-((S)-5H-imidazo[5,1-a]isoindol-5-yl)-3-methyl-6,7-dihydro-5H-cyclopenta[c]pyridin-7-ol] |
| 5700 nM | O=c1cccc2n1CCC(C1c3ccccc3-c3cncn31)C2O (single isomer, unassigned) [Example 29d, 1-hydroxy-2-(5H-imidazo[5,1-a]isoindol-5-yl)-3,4-dihydro-1H-quinolizin-6(2H)-one] |
| 6600 nM | N#Cc1ccc2c(c1)CCC(C1c3ccccc3-c3cncn31)C2O (single isomer, unassigned) [Example 62c] |
| > 25000 nM | N[C@@H]1COC[C@@H]1[C@H]1c2ccccc2-c2cncn21 [Example 32d, (3S,4S)-4-[(5S)-5H-imidazo[4,3-a]isoindol-5-yl]oxolan-3-amine] |
| 370 nM | CS(=O)(=O)N1CCC2(CCC(C3c4ccccc4-c4cncn43)C2O)CC1 (single isomer, unassigned) [Example 180a] |
| 2000 nM | OC(C1CC1)C1c2ccccc2-c2cncn21 (single isomer, unassigned) [Example 52d] |
| > 25000 nM | O[C@@H]1COCC[C@H]1[C@@H]1c2c(F)cccc2-c2cncn21 (single isomer, unassigned) [Example 120d] |
| > 25000 nM | Nc1ncc2c(n1)CCC(C1c3ccccc3-c3cncn31)C2O (single isomer, unassigned) [Example 111f] |
| > 25000 nM | O[C@@H]1c2cccnc2CC[C@@H]1[C@@H]1c2ccccc2-c2cncn21 [Example 31a, (5S,6R)-6-((R)-5H-imidazo[5,1-a]isoindol-5-yl)-5,6,7,8-tetrahydroquinolin-5-ol] |
| > 25000 nM | CCS(=O)(=O)N1CC(O)C(C2c3ccccc3-c3cncn32)C1 (single isomer, unassigned) [Example 40c] |
| 660 nM | CC1(C)OCC(C2c3ccccc3-c3cncn32)C1O (single isomer, unassigned) [Example 85d] |
| 330 nM | O[C@@H]1CN(CC(F)(F)F)CC[C@H]1[C@H]1c2ccccc2-c2cncn21 [Example 82b, (3S,4S)-4-((S)-5H-imidazo[5,1-a]isoindol-5-yl)-1-(2,2,2-trifluoroethyl)piperidin-3-ol] |
| 2500 nM | N#Cc1ccc2c(c1)CCC(C1c3ccccc3-c3cncn31)C2O (single isomer, unassigned) [Example 62f] |
| 14000 nM | OC1c2cncnc2CCC1C1c2ccccc2-c2cncn21 (single isomer, unassigned) [Example 94g] |
| 3400 nM | OC1(C2c3ccccc3-c3cncn32)CC(CF)(CF)C1 (racemic) [Example 54, 3,3-bis(fluoromethyl)-1-(5H-imidazo[5,1-a]isoindol-5-yl)cyclobutan-1-ol] |
| 14000 nM | CC1(C)OC(C)(C)C(C2c3ccccc3-c3cncn32)C1O (single isomer, unassigned) [Example 84a] |
| 650 nM | Cn1cc2c(n1)CCC(C1c3ccccc3-c3cncn31)C2O (single isomer, unassigned) [Example 130b] |

| EC50 | Compound |
| --- | --- |
| 4500 nM | Cn1cc2c(n1)CCC(C1c3ccccc3-c3cncn31)C2O (single isomer, unassigned) [Example 130g] |
| 81 nM | CC1(C)CCC(C2c3ccccc3-c3cncn32)C1O (single isomer, unassigned) [Example 23c] |
| 2700 nM | CC(=O)N1CCC(O)C(C2c3ccccc3-c3cncn32)C1 (single isomer, unassigned) [Example 12a] |
| > 25000 nM | OC1C(C2c3ccc(F)cc3-c3cncn32)CC12CCOCC2 (single isomer, unassigned) [Example 109h] |
| 5400 nM | O[C@H]1c2ccccc2CC[C@@H]1[C@@H]1c2ccccc2-c2cncn21 [Example 102f, (1R,2R)-2-((R)-5H-imidazo[5,1-a]isoindol-5-yl)-1,2,3,4-tetrahydronaphthalen-1-ol] |
| 3400 nM | NC(=O)c1ccc2c(n1)CCC(C1c3ccccc3-c3cncn31)C2O (single isomer, unassigned) [Example 104e] |
| 14000 nM | CC(C)C(O)C1c2ccccc2-c2cncn21 (single isomer, unassigned) [Example 51d] |
| 65 nM | O[C@H]1CCC(F)(F)C[C@H]1[C@H]1c2ccccc2-c2cncn21 [Example 18a, (1S,2S)-4,4-difluoro-2-((S)-5H-imidazo[5,1-a]isoindol-5-yl)cyclohexan-1-ol] |
| 840 nM | OC1CCCOCC1C1c2ccccc2-c2cncn21 (single isomer, unassigned) [Example 86g] |
| 100 nM | O[C@H]1c2ccncc2CC[C@H]1[C@H]1c2ccccc2-c2cncn21 (single isomer, unassigned) [Example 08h] |
| 54 nM | OC1c2nonc2CCC1C1c2ccccc2-c2cncn21 (single isomer, unassigned) [Example 163d] |
| 19000 nM | N#Cc1cnn2c1[C@@H](O)[C@@H]([C@H]1c3ccccc3-c3cncn31)CC2 (single isomer, unassigned) [Example 156c] |
| 60 nM | N#Cc1ccc2c(c1)C(O)C(C1c3ccccc3-c3cncn31)CC2 (single isomer, unassigned) [Example 113c] |
| > 25000 nM | CS(=O)(=O)N1CCC2(CCC(C3c4ccccc4-c4cncn43)C2O)CC1 (single isomer, unassigned) [Example 180d] |
| 5700 nM | OC1COCCC1C1c2cc(F)ccc2-c2cncn21 (single isomer, unassigned) [Example 75-1a] |
| > 25000 nM | CS(=O)(=O)c1ccc2c(c1)OCC(C1c3ccccc3-c3cncn31)C2O (single isomer, unassigned) [Example 91b] |
| 1300 nM | NS(=O)(=O)c1ccc2c(c1)CCC(C1c3ccccc3-c3cncn31)C2O (single isomer, unassigned) [Example 100b] |
| > 25000 nM | O[C@@H]1COCC[C@@H]1[C@@H]1c2ccccc2-c2cncn21 [Example 06e, (3S,4R)-4-((R)-5H-imidazo[5,1-a]isoindol-5-yl)tetrahydro-2H-pyran-3-ol] |
| 23000 nM | NC(=O)c1ccc2c(c1)C(O)C(C1c3ccccc3-c3cncn31)CC2 (single isomer, unassigned) [Example 122c] |
| 1600 nM | Cc1cc2c(cn1)C(O)C(C1c3ccccc3-c3cncn31)C2 (single isomer, unassigned) [Example 59c] |
| 12000 nM | NC(=O)c1ccc2c(c1)C(O)C(C1c3ccccc3-c3cncn31)CC2 (single isomer, unassigned) [Example 122b] |

| EC50 | Compound |
| --- | --- |
| > 25000 nM | OC1COCCC1C1c2ccccc2-c2cncn21 (single isomer, unassigned) [Example 06h] |
| 2700 nM | CS(=O)(=O)c1ccc2c(c1)CCC(C1c3ccccc3-c3cncn31)C2O (single isomer, unassigned) [Example 36e] |
| > 25000 nM | Cc1ccc2c(c1)-c1cncn1C2C1COCC1O (single isomer, unassigned) [Example 171b] |
| > 25000 nM | O=c1cccc2n1CCC(C1c3ccccc3-c3cncn31)C2O (single isomer, unassigned) [Example 29f, 1-hydroxy-2-(5H-imidazo[5,1-a]isoindol-5-yl)-3,4-dihydro-1H-quinolizin-6(2H)-one] |
| > 25000 nM | OC1c2cccnc2CCC1C1c2ccccc2-c2cncn21 (single isomer, unassigned) [Example 31d] |
| 2700 nM | CC1(C)CCC(C2c3ccccc3-c3cncn32)C1O (single isomer, unassigned) [Example 23f] |
| 330 nM | OC1c2cnnn2CCC1C1c2ccccc2-c2cncn21 (single isomer, unassigned) [Example 146a] |
| > 25000 nM | O[C@@H]1CC[C@H]1[C@@H]1c2ccccc2-c2cncn21 (single isomer, unassigned) [Example 01f] |
| 1000 nM | N#Cc1ccc2c(c1)[C@H](O)[C@@H]([C@@H]1c3ccccc3-c3cncn31)CC2 [Example 113a, (7R,8R)-8-hydroxy-7-((R)-5H-imidazo[5,1-a]isoindol-5-yl)-5,6,7,8-tetrahydronaphthalene-2-carbonitrile] |
| 200 nM | OC1c2ccccc2CC1C1c2ccccc2-c2cncn21 (single isomer, unassigned) [Example 19d] |
| 6000 nM | OC1c2ccnn2CCCC1C1c2ccccc2-c2cncn21 (single isomer, unassigned) [Example 133c] |
| 12000 nM | O[C@@H]1CCC[C@@H]1[C@@H]1c2ccccc2-c2cncn21 [Example 02a, (1R,2R)-2-((R)-5H-imidazo[5,1-a]isoindol-5-yl)cyclopentan-1-ol] |
| 210 nM | OC1c2cccnc2CCC1C1c2ccc(F)cc2-c2cncn21 (single isomer, unassigned) [Example 169a] |
| 11000 nM | NC(=O)C1(C(O)C2c3ccccc3-c3cncn32)CC1 (single isomer, unassigned) [Example 165c] |
| > 25000 nM | CC(O)(c1ncc[nH]1)C1c2ccccc2-c2cncn21 (single isomer, unassigned) [Example 143b] |
| 210 nM | Cn1cc2c(n1)C(O)C(C1c3ccccc3-c3cncn31)CC2 (single isomer, unassigned) [Example 139-1f] |
| 810 nM | Cn1ncc2c1CCC(C1c3ccccc3-c3cncn31)C2O (single isomer, unassigned) [Example 93f] |
| > 25000 nM | NS(=O)(=O)N1CC(O)C(C2c3ccccc3-c3cncn32)C1 (single isomer, unassigned) [Example 28c] |
| 660 nM | CC1(C)OCC(C2c3ccccc3-c3cncn32)C1O (single isomer, unassigned) [Example 85h] |
